# System: subjects with moderately to severely active RA who have an inadequate response to methotrexate (MTX)
# Assay: Study 2 (monotherapy) - Creatinine levels
# Type: in vivo, human
# From the text: Randomized, double-blind, placebo-controlled, multicenter, phase IIb dose finding study of Compound 1 (dosed as a [Compound 1:HCl:3H2O]) administered for 24 weeks as monotherapy to subjects with moderately to severely active rheumatoid arthritis who have an inadequate response to methotrexate alone
# Double-blind, placebo-controlled, monotherapy study in subjects with moderately to severely active RA who have an inadequate response to methotrexate (MTX) (oral or parenteral).
# 280 subjects randomized to one of 3 doses of Compound 1 (dosed as a [Compound 1:HCl:3H2O]) or to placebo, given once daily (q.d.).
# Twelve weeks of treatment with Compound 1 (dosed as a [Compound 1:HCl:3H2O]) at 50 mg, 100 mg, or 200 mg q.d.; or placebo. At Week 12, all subjects on placebo and the subjects on the 50 mg dose who have not achieved 20% improvement in swollen joint count (SJC66) and tender joint count (TJC68) will be assigned to 100 mg q.d. in a blinded fashion and will continue treatment until Week 24. Subjects in the other groups will maintain their randomized treatment until Week 24.
# Creatinine levels determination is available at Quest Diagnostics, Clinical Trials, Quest House, 125-135 Staines Road, Hounslow, Middlesex, TW3 3JB, United Kingdom under Catalogue n# 82565. For Study 3, the data are obtained at BARC Europe, 3B,Industrie Park, Zwijnaarde, B-9052 Ghent, Belgium.
# The Enzymatic method is based on the determination of sarcosine after conversion of creatinine with the aid of creatininase, creatinase, and sarcosine oxidase. The liberated hydrogen peroxide reacts with 4-aminophenazone and HTIB to form a quinone imine chromogen. The reaction is catalyzed by peroxidase. The color intensity is directly proportional to concentration of creatinine present and can be measured photometrically.
# Subjects in the other groups maintained their randomized treatment until Week 24.
# [1] = 50 mg q.d. non responders switching to 100 mg q.d. at week 12 (N = 15), week 0
# [2] = 50 mg q.d. non responders switching to 100 mg q.d. at week 12 (N = 15), week 1
# [3] = 50 mg q.d. non responders switching to 100 mg q.d. at week 12 (N = 15), week 2
# [4] = 50 mg q.d. non responders switching to 100 mg q.d. at week 12 (N = 15), week 4
# [5] = 50 mg q.d. non responders switching to 100 mg q.d. at week 12 (N = 15), week 8
# [6] = 50 mg q.d. non responders switching to 100 mg q.d. at week 12 (N = 15), week 12
# [7] = 50 mg q.d. non responders switching to 100 mg q.d. at week 12 (N = 15), week 16
# [8] = 50 mg q.d. non responders switching to 100 mg q.d. at week 12 (N = 15), week 20
# [9] = 50 mg q.d. non responders switching to 100 mg q.d. at week 12 (N = 15), week 24
# [10] = 50 mg q.d. responders (N = 57), week 0
# [11] = 50 mg q.d. responders (N = 57), week 1
# [12] = 50 mg q.d. responders (N = 57), week 2
# [13] = 50 mg q.d. responders (N = 57), week 4
# [14] = 50 mg q.d. responders (N = 57), week 8
# [15] = 50 mg q.d. responders (N = 57), week 12
# [16] = 50 mg q.d. responders (N = 57), week 16
# [17] = 50 mg q.d. responders (N = 57), week 20
# [18] = 50 mg q.d. responders (N = 57), week 24
# [19] = 100 mg q.d. (N = 70), 24 weeks results, week 0
# [20] = 100 mg q.d. (N = 70), 24 weeks results, week 1
# [21] = 100 mg q.d. (N = 70), 24 weeks results, week 2
# [22] = 100 mg q.d. (N = 70), 24 weeks results, week 4
# [23] = 100 mg q.d. (N = 70), 24 weeks results, week 8
# [24] = 100 mg q.d. (N = 70), 24 weeks results, week 12
# [25] = 100 mg q.d. (N = 70), 24 weeks results, week 16
# [26] = 100 mg q.d. (N = 70), 24 weeks results, week 20
# [27] = 100 mg q.d. (N = 70), 24 weeks results, week 24
# [28] = 200 mg q.d. (N = 69), 24 weeks results, week 0
# [29] = 200 mg q.d. (N = 69), 24 weeks results, week 1
# [30] = 200 mg q.d. (N = 69), 24 weeks results, week 2
# [31] = 200 mg q.d. (N = 69), 24 weeks results, week 4
# [32] = 200 mg q.d. (N = 69), 24 weeks results, week 8
# [33] = 200 mg q.d. (N = 69), 24 weeks results, week 12
# [34] = 200 mg q.d. (N = 69), 24 weeks results, week 16
# [35] = 200 mg q.d. (N = 69), 24 weeks results, week 20
# [36] = 200 mg q.d. (N = 69), 24 weeks results, week 24
# [37] = placebo switching to 100 mg q.d. at week 12 (N = 72), week 16
# [38] = placebo switching to 100 mg q.d. at week 12 (N = 72), week 20
# [39] = placebo switching to 100 mg q.d. at week 12 (N = 72), week 24
structure (smiles),measurement,setting,value
"O=C(Nc1nc2cccc(-c3ccc(CN4CCS(=O)(=O)CC4)cc3)n2n1)C1CC1 [Compound 1, cyclopropanecarboxylic acid {5-[4-(1,1-dioxo-thiomorpholin-4-ylmethyl)-phenyl]-[1,2,4]triazolo[1,5-a]pyridin-2-yl}-amide]",Creatinine Mean CFB,"50 mg q.d. (N = 72), week 0",0.00 µmol/L
same,Creatinine Mean percentage CFB,"50 mg q.d. (N = 72), week 0",0.00%
same,Creatinine Mean CFB,"50 mg q.d. (N = 72), week 1",0.42 µmol/L
same,Creatinine Mean percentage CFB,"50 mg q.d. (N = 72), week 1",1.10%
same,Creatinine Mean CFB,"50 mg q.d. (N = 72), week 2",1.25 µmol/L
same,Creatinine Mean percentage CFB,"50 mg q.d. (N = 72), week 2",2.59%
same,Creatinine Mean CFB,"50 mg q.d. (N = 72), week 4",1.32 µmol/L
same,Creatinine Mean percentage CFB,"50 mg q.d. (N = 72), week 4",3.01%
same,Creatinine Mean CFB,"50 mg q.d. (N = 72), week 8",2.20 µmol/L
same,Creatinine Mean percentage CFB,"50 mg q.d. (N = 72), week 8",4.34%
same,Creatinine Mean CFB,"50 mg q.d. (N = 72), week 12",3.16 µmol/L
same,Creatinine Mean percentage CFB,"50 mg q.d. (N = 72), week 12",6.02%
same,Creatinine Mean CFB,[1],0.0 µmol/L
same,Creatinine Mean percentage CFB,[1],0.00%
same,Creatinine Mean CFB,[2],1.1 µmol/L
same,Creatinine Mean percentage CFB,[2],2.03%
same,Creatinine Mean CFB,[3],2.0 µmol/L
same,Creatinine Mean percentage CFB,[3],3.77%
same,Creatinine Mean CFB,[4],0.6 µmol/L
same,Creatinine Mean percentage CFB,[4],1.58%
same,Creatinine Mean CFB,[5],6.2 µmol/L
same,Creatinine Mean percentage CFB,[5],10.36%
same,Creatinine Mean CFB,[6],0.0 µmol/L
same,Creatinine Mean percentage CFB,[6],0.74%
same,Creatinine Mean CFB,[7],5.9 µmol/L
same,Creatinine Mean percentage CFB,[7],11.14%
same,Creatinine Mean CFB,[8],4.5 µmol/L
same,Creatinine Mean percentage CFB,[8],8.07%
same,Creatinine Mean CFB,[9],5.2 µmol/L
same,Creatinine Mean percentage CFB,[9],9.28%
same,Creatinine Mean CFB,[10],0.0 µmol/L
same,Creatinine Mean percentage CFB,[10],0.00%
same,Creatinine Mean CFB,[11],0.2 µmol/L
same,Creatinine Mean percentage CFB,[11],0.86%
same,Creatinine Mean CFB,[12],1.0 µmol/L
same,Creatinine Mean percentage CFB,[12],2.27%
same,Creatinine Mean CFB,[13],1.5 µmol/L
same,Creatinine Mean percentage CFB,[13],3.40%
same,Creatinine Mean CFB,[14],1.1 µmol/L
same,Creatinine Mean percentage CFB,[14],2.67%
same,Creatinine Mean CFB,[15],4.0 µmol/L
same,Creatinine Mean percentage CFB,[15],7.51%
same,Creatinine Mean CFB,[16],1.9 µmol/L
same,Creatinine Mean percentage CFB,[16],3.91%
same,Creatinine Mean CFB,[17],3.6 µmol/L
same,Creatinine Mean percentage CFB,[17],7.19%
same,Creatinine Mean CFB,[18],1.6 µmol/L
same,Creatinine Mean percentage CFB,[18],3.16%
same,Creatinine Mean CFB,[19],0.0 µmol/L
same,Creatinine Mean percentage CFB,[19],0.00%
same,Creatinine Mean CFB,[20],1.2 µmol/L
same,Creatinine Mean percentage CFB,[20],3.00%
same,Creatinine Mean CFB,[21],1.5 µmol/L
same,Creatinine Mean percentage CFB,[21],3.21%
same,Creatinine Mean CFB,[22],1.1 µmol/L
same,Creatinine Mean percentage CFB,[22],3.23%
same,Creatinine Mean CFB,[23],3.2 µmol/L
same,Creatinine Mean percentage CFB,[23],5.79%
same,Creatinine Mean CFB,[24],1.7 µmol/L
same,Creatinine Mean percentage CFB,[24],3.96%
same,Creatinine Mean CFB,[25],2.9 µmol/L
same,Creatinine Mean percentage CFB,[25],6.44%
same,Creatinine Mean CFB,[26],2.3 µmol/L
same,Creatinine Mean percentage CFB,[26],4.63%
same,Creatinine Mean CFB,[27],2.0 µmol/L
same,Creatinine Mean percentage CFB,[27],4.17%
same,Creatinine Mean CFB,"100 mg q.d. (N = 70), week 0",0.00 µmol/L
same,Creatinine Mean percentage CFB,"100 mg q.d. (N = 70), week 0",0.00%
same,Creatinine Mean CFB,"100 mg q.d. (N = 70), week 1",1.19 µmol/L
same,Creatinine Mean percentage CFB,"100 mg q.d. (N = 70), week 1",3.00%
same,Creatinine Mean CFB,"100 mg q.d. (N = 70), week 2",1.48 µmol/L
same,Creatinine Mean percentage CFB,"100 mg q.d. (N = 70), week 2",3.21%
same,Creatinine Mean CFB,"100 mg q.d. (N = 70), week 4",1.10 µmol/L
same,Creatinine Mean percentage CFB,"100 mg q.d. (N = 70), week 4",3.23%
same,Creatinine Mean CFB,"100 mg q.d. (N = 70), week 8",3.19 µmol/L
same,Creatinine Mean percentage CFB,"100 mg q.d. (N = 70), week 8",5.79%
same,Creatinine Mean CFB,"100 mg q.d. (N = 70), week 12",1.75 µmol/L
same,Creatinine Mean percentage CFB,"100 mg q.d. (N = 70), week 12",3.96%
same,Creatinine Mean CFB,[28],0.0 µmol/L
same,Creatinine Mean percentage CFB,[28],0.00%
same,Creatinine Mean CFB,[29],4.7 µmol/L
same,Creatinine Mean percentage CFB,[29],8.07%
same,Creatinine Mean CFB,[30],5.0 µmol/L
same,Creatinine Mean percentage CFB,[30],8.56%
same,Creatinine Mean CFB,[31],4.3 µmol/L
same,Creatinine Mean percentage CFB,[31],7.37%
same,Creatinine Mean CFB,[32],4.8 µmol/L
same,Creatinine Mean percentage CFB,[32],8.70%
same,Creatinine Mean CFB,[33],3.8 µmol/L
same,Creatinine Mean percentage CFB,[33],7.96%
same,Creatinine Mean CFB,[34],5.3 µmol/L
same,Creatinine Mean percentage CFB,[34],9.81%
same,Creatinine Mean CFB,[35],6.6 µmol/L
same,Creatinine Mean percentage CFB,[35],13.11%
same,Creatinine Mean CFB,[36],3.5 µmol/L
same,Creatinine Mean percentage CFB,[36],8.41%
same,Creatinine Mean CFB,"200 mg q.d. (N = 69), week 0",0.00 µmol/L
same,Creatinine Mean percentage CFB,"200 mg q.d. (N = 69), week 0",0.00%
same,Creatinine Mean CFB,"200 mg q.d. (N = 69), week 1",4.68 µmol/L
same,Creatinine Mean percentage CFB,"200 mg q.d. (N = 69), week 1",8.07%
same,Creatinine Mean CFB,"200 mg q.d. (N = 69), week 2",4.99 µmol/L
same,Creatinine Mean percentage CFB,"200 mg q.d. (N = 69), week 2",8.56%
same,Creatinine Mean CFB,"200 mg q.d. (N = 69), week 4",4.28 µmol/L
same,Creatinine Mean percentage CFB,"200 mg q.d. (N = 69), week 4",7.37%
same,Creatinine Mean CFB,"200 mg q.d. (N = 69), week 8",4.82 µmol/L
same,Creatinine Mean percentage CFB,"200 mg q.d. (N = 69), week 8",8.70%
same,Creatinine Mean CFB,"200 mg q.d. (N = 69), week 12",3.80 µmol/L
same,Creatinine Mean percentage CFB,"200 mg q.d. (N = 69), week 12",7.96%
same,Creatinine Mean CFB,[37],1.9 µmol/L
same,Creatinine Mean percentage CFB,[37],3.61%
same,Creatinine Mean CFB,[38],2.7 µmol/L
same,Creatinine Mean percentage CFB,[38],5.14%
same,Creatinine Mean CFB,[39],4.6 µmol/L
same,Creatinine Mean percentage CFB,[39],8.41%

# Reference: US20180200257A1, “METHODS FOR THE TREATMENT OF INFLAMMATORY DISORDERS” (Galapagos NV, priority 2015, published 2018)
